Measured values: PubChem BioAssay (NCI)
Several values for one entry are separate records, joined by “and”; a condition that tells them apart may be missing. Identical values can stand only once.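 In this assay, cells in 96-well plates receive the compound at five concentrations for 48 hours. Endpoints are linearly interpolated between the surrounding concentrations. The concentration for 50% growth inhibition is given as GI50. Definition used: TGI = concentration required for complete inhibition of growth.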

Assays:
Test in all cases: growth of human tumour cells (NCI), 48 h
HL-60(TB) leukemia = tested on: HL-60(TB) leukemia
HS 578T breast = tested on: HS 578T breast
IGROV1 ovarian = tested on: IGROV1 ovarian
K-562 leukemia = tested on: K-562 leukemia
KM12 colon = tested on: KM12 colon
MCF7 breast = tested on: MCF7 breast
OVCAR-4 ovarian = tested on: OVCAR-4 ovarian
OVCAR-5 ovarian = tested on: OVCAR-5 ovarian
PC-3 prostate = tested on: PC-3 prostate
SF-268 CNS = tested on: SF-268 CNS

Structure (SMILES) | GI50 (HL-60(TB) leukemia) [µM] | TGI (HL-60(TB) leukemia) | GI50 (HS 578T breast) [µM] | TGI (HS 578T breast) | GI50 (IGROV1 ovarian) [µM] | TGI (IGROV1 ovarian) | GI50 (K-562 leukemia) [µM] | TGI (K-562 leukemia) | GI50 (KM12 colon) [µM] | TGI (KM12 colon) | GI50 (MCF7 breast) [µM] | TGI (MCF7 breast) | GI50 (OVCAR-4 ovarian) [µM] | TGI (OVCAR-4 ovarian) | GI50 (OVCAR-5 ovarian) [µM] | TGI (OVCAR-5 ovarian) | GI50 (PC-3 prostate) [µM] | TGI (PC-3 prostate) | GI50 (SF-268 CNS) [µM] | TGI (SF-268 CNS)
N#CC1=C(N)NC(=S)NC12Nc1ccccc1O2 (stereo not drawn) | 17.2 | > 100 µM | 19.1 | 60.2 µM | 3.17 | 24.9 µM | 13.7 | > 100 µM | 27.1 | > 100 µM | 27.2 | > 100 µM | 52 | > 100 µM | 40.7 | > 100 µM | 28.6 | > 100 µM | 51.2 | > 100 µM
c1ccc(C(=NNc2nc3ccccc3o2)c2ccccn2)nc1 | 0.0323 | 0.289 µM and 1.14 µM | 1.01 | > 81.9 µM and 55.5 µM | 0.0437 | 11.7 µM |  | > 100 µM and 22.9 µM | 0.0681 | 17.8 µM and 15 µM | 0.0289 |  | 0.0128 |  | 0.0847 |  | 0.0436 | 26.6 µM and 13.8 µM | 0.0551 | 22.9 µM and 2.38 µM
CCOC(=O)CCCn1c(SC)nc2cc(-c3ccco3)[nH]c2c1=O | > 100 | > 100 µM | 25.6 | > 100 µM | 19.6 | 76.6 µM | > 100 | > 100 µM | > 100 | > 100 µM | > 100 | > 100 µM | > 100 | > 100 µM | > 100 | > 100 µM | > 100 | > 100 µM | 52.7 | > 100 µM
CC([C@H]1CCC2C3CCC4C[C@@H](NC=O)CC[C@]4(C)C3CC[C@@]21C)N(C)C (stereo partly drawn) | 2.23 | 6.79 µM | 2.69 | 12 µM | 4.81 | 18.2 µM | 0.862 | 3.18 µM | 3.14 | 12.6 µM | 2.06 | 7.26 µM | 4.72 | 23.1 µM | 6.87 | 19.3 µM | 2.47 | 16.4 µM | 1.7 | 3.93 µM
FC(F)(F)c1cccc(COCCN2CCN(Cc3cccc(C(F)(F)F)c3)CC2)c1 |  | > 100 µM |  | 38.2 µM |  | 30.3 µM |  | > 100 µM |  | 35.8 µM |  | 31.7 µM |  | 32.1 µM |  | 31.6 µM |  | 21.7 µM |  | 30.3 µM
O=C1C(Cl)=C(Oc2ccc([N+](=O)[O-])cc2)C(=O)c2c(O)ccc(O)c21 |  | 19.2 µM |  | > 100 µM |  | > 100 µM |  | 40.3 µM |  | > 100 µM |  | > 100 µM |  | > 100 µM |  | > 100 µM |  | > 100 µM |  | > 100 µM
CCC1=C[C@@H]2CN(C1)Cc1c([nH]c3ccccc13)[C@@](C(=O)OC)(c1cc3c(cc1OC)N(C=O)[C@H]1[C@@](O)(C(=O)OC)[C@H](OC(C)=O)[C@]4(CC)[C@@H]5C[C@@H]5CN5CC[C@]31[C@@H]54)C2 | < 0.000625 | < 0.000625 µM | 0.00181 | > 6.25 µM | 0.00261 | > 6.25 µM | < 0.000625 | > 6.25 µM | < 0.000625 |  | < 0.000625 | > 6.25 µM | 0.054 | > 6.25 µM | 0.00255 | > 6.25 µM | 0.000826 | > 6.25 µM | 0.00111 | > 6.25 µM
CCN1C(=O)N(CC)C2C1NN=c1s/c(=C3\C(=O)N(CC(C)C)c4ccccc43)c(=O)n12 (stereo not drawn) | 0.34 | 1.64 µM | 0.665 | 23.9 µM | 0.808 | > 55.7 µM | 0.429 | > 100 µM | 0.418 | > 100 µM | 0.454 | > 100 µM | 1.23 | > 100 µM | 2.27 | > 100 µM | 0.514 | > 100 µM | 1.32 | > 59.9 µM
c1ccc2[nH]c(SSc3nc4ncncc4[nH]3)nc2c1 | 0.71 | > 100 µM | 8.92 | > 100 µM | 4.48 | 96.2 µM | 0.278 | > 100 µM | 3.85 | > 100 µM | 0.295 |  | 3.64 | > 100 µM | 13 | > 100 µM | 5.37 | > 100 µM | 4.13 | > 100 µM
Nc1ccc(C(=O)c2ccc(N)c(Br)c2)cc1Br | 0.326 | 2.8 µM | 0.345 |  | 0.474 | 18.4 µM | 0.271 | 22.2 µM | 0.409 | 12.8 µM | 0.428 | > 100 µM | 6.24 | > 100 µM | 0.701 | > 100 µM | 0.392 | > 63.4 µM | 0.747 | > 53.1 µM
Cc1cccc(C)c1NC(=O)/C(Cl)=C(/Cl)C(=O)O |  | > 100 µM |  | 83.2 µM |  | 40.8 µM |  | 17.4 µM |  | 23 µM |  | 46.3 µM |  | 33.5 µM |  | 40.6 µM |  | 50.4 µM |  | 32.6 µM
CN(NC(=O)CC(=O)NN(C)C(=S)c1ccccc1)C(=S)c1ccccc1 | > 70.7 | > 100 µM | 19.2 | > 100 µM |  | > 100 µM | 40.8 | > 100 µM | 65.1 | > 100 µM | < 0.01 | > 100 µM | > 71.2 | > 100 µM |  | > 100 µM | 51.5 | > 100 µM | 67.2 | > 100 µM
Cc1ncc([N+](=O)[O-])n1CCNS(=O)(=O)CCCn1ccnc1[N+](=O)[O-] |  | > 100 µM |  | > 100 µM |  | > 100 µM |  | > 100 µM |  | > 100 µM |  | > 100 µM |  | > 100 µM |  | > 100 µM |  | > 100 µM |  | > 100 µM
O=[N+]([O-])c1ccc(-c2nc(N(CCO)CCO)c3ccccc3n2)o1 | 0.311 | 2.91 µM | 0.346 | 1.99 µM | 0.151 | 0.45 µM | 0.337 | > 20.6 µM | 0.216 | 0.862 µM | 0.0419 | 0.397 µM | 0.208 | 1.8 µM | 0.562 | 5.1 µM | 0.293 | 2.84 µM | 0.211 | 1.52 µM
Cc1ccccc1CN1CC2=C(CCN(Cc3ccccc3)C2=O)N2CCN=C12 |  | > 100 µM |  | > 100 µM |  | > 100 µM |  | > 100 µM |  | > 100 µM |  | > 100 µM |  | > 100 µM |  | > 100 µM |  | > 100 µM |  | > 100 µM
COc1ccc(C2=NN(C(=O)COc3ccc(Cl)cc3)C(O)(c3cc(F)c(Cl)cc3Cl)C2)cc1OC (stereo not drawn) | 2.68 | 7.86 µM | 4.5 | 13.4 µM | 10.2 | 22.2 µM | 1.55 | 15.2 µM | 4.88 | 16.2 µM | 2.18 | 8.21 µM | 2.26 | 6.97 µM | 5.91 | 13.3 µM | 5.49 | 13.2 µM | 3.91 | 17.4 µM
C/C=C(\C)C(=O)N[C@H]1[C@@H](OC(C)=O)C[C@]2(C)C3CC[C@@]4(C)C(CC[C@@H]4C(C)N(C)C)C3CCC2[C@H]1O (stereo partly drawn) | 4.53 | 13.6 µM | 12.4 | 43.1 µM | 5.88 | 16.8 µM | 1.32 | 5.02 µM | 4.35 | 15.5 µM | 3.71 | 18.1 µM | 5.29 | 31.5 µM | 13.8 | 28.2 µM | 2.88 | 24.2 µM | 2.9 | 13.3 µM
CCN(CC)CCOc1ccc(Nc2ncc3cc(-c4ccc(O)cc4)c(=O)n(C)c3n2)cc1 | 14.6 | 40.3 µM | 0.274 | 19.8 µM | 0.0803 | 15.9 µM | 0.039 |  | 2.44 | 17.1 µM | 1.07 | 2.78 µM | 16.7 | 33.7 µM | 10.7 | 30.8 µM | 0.831 | 24.6 µM | 1.19 | 20.9 µM
CCCCCNC(=O)[C@@H]1CCCN2C(=O)CC[C@H](NC(=O)[C@H](Cc3ccc(OP(=O)(O)O)cc3)NC(C)=O)C(=O)N12 | > 25 | > 25 µM | > 25 | > 25 µM | > 25 | > 25 µM | > 25 | > 25 µM | > 25 | > 25 µM | > 25 | > 25 µM | > 25 | > 25 µM | > 25 | > 25 µM | > 25 | > 25 µM | > 25 | > 25 µM
O=C1/C(=C/c2ccc(O)c([N+](=O)[O-])c2)CCC/C1=C\c1ccc(O)c([N+](=O)[O-])c1 | 16.7 | 50 µM and 45.1 µM |  | 60.3 µM | 15.2 | 17 µM and 28.5 µM | 20.9 | 50 µM and 64.4 µM | 1.97 | 18.4 µM and 9.42 µM | 15.8 | 50 µM and 63 µM | 4.34 | 50 µM and > 100 µM | 21.9 | 33.8 µM and 39.5 µM | 9.12 | 50 µM and 22.8 µM |  | 19.9 µM
N=C1c2nc3n(c2C(=O)c2nc4n(c21)CCCC4)CCCC3 | 31 | > 84.3 µM | 2.18 | 6.68 µM | 41.6 | > 100 µM | 19.8 | > 100 µM | 16.6 | > 100 µM | 1.36 | 3.61 µM | 24.7 | > 100 µM | 2.28 | 4.89 µM | > 68.8 | > 100 µM | 11.9 | > 74.9 µM
[N-]=[N+]=C(C(=O)OCC#CCOC(=O)C(=[N+]=[N-])S(=O)(=O)c1ccccc1)S(=O)(=O)c1ccccc1 |  | > 10 µM |  | > 10 µM |  | > 10 µM |  | > 10 µM |  | > 10 µM |  | > 10 µM |  | > 10 µM |  | > 10 µM |  | > 10 µM |  | > 10 µM
O=C(c1cc(F)c(Cl)cc1Cl)N1N=C(c2ccccc2)CC1(O)c1ccccc1 (stereo not drawn) | 17.4 | 41.2 µM | 23.8 | 58.8 µM | 15.2 | 36.7 µM | 12.2 | 27.2 µM | 20.1 | 44.8 µM | 18.3 | 38.2 µM | 17.8 | 57.8 µM | 23.3 | 70.9 µM | 12.9 | 40.5 µM | 21.9 | 53.2 µM
COc1cc(Cl)cc(-c2nn(C(=O)NCCN3CCN(C)CC3)cc2-c2ccncc2)c1 | 25.6 | 75.8 µM | 4.96 | 32.9 µM | 17.8 | > 100 µM | 28.5 | > 100 µM | 20.5 | 79.6 µM | 29.4 | > 100 µM | 4.35 | > 100 µM | 17.9 | 68.2 µM | 19.5 | > 100 µM | 7.35 | > 100 µM
OCC(O)C(O)C(O)C1SC(c2ccccc2)=NN1c1ccccc1 (stereo not drawn) |  | > 100 µM |  | > 100 µM |  | > 100 µM |  | > 100 µM |  | > 100 µM |  | > 100 µM |  | > 100 µM |  | > 100 µM |  | > 100 µM |  | > 97.3 µM
